Source: ChEMBL document CHEMBL3351843, “Noncovalent fluorescent probes of human immuno- and constitutive proteasomes” (J Med Chem, 2014)
pIC50: −log10 of the molar value. Active and inactive are the calls of the source. No cut-off for these calls is given here.

How the values were obtained:
[1] = Inhibition of chymotrypsin-like activity of human inducible 20S immunoproteasome incubated for 15 mins before fluorogenic substrate addition
Proteasome [2] = assay: Inhibition of trypsin-like activity of proteasome in HEK293 cells incubated for 1 hr by proteasome Glo cell-based chemiluminescent assay; conditions: Homo sapiens, HEK293, 1 h
[3] = Drug uptake in nucleus of HEK293 cells at 5 uM incubated for 1 hr by DAPI staining based confocal microscopy; format: ADME, cell-based; conditions: human, hek293, 1 h
Proteasome [4] = assay: Inhibition of PA activity of proteasome in HEK293 cells incubated for 1 hr by proteasome Glo cell-based chemiluminescent assay; conditions: Homo sapiens, HEK293, 1 h
[5] = Cytotoxicity against HEK293 cells assessed as cell survival at 5 uM incubated for 1 hr by XTT assay; format: cell-based; conditions: human, read-out: Survival
Proteasome [6] = assay: Inhibition of chymotrypsin-like activity of proteasome in HEK293 cells incubated for 1 hr by proteasome Glo cell-based chemiluminescent assay; conditions: Homo sapiens, HEK293, 1 h
[7] = Inhibition of trypsin-like activity of human inducible 20S immunoproteasome incubated for 15 mins before fluorogenic substrate addition
[8] = Inhibition of PA activity of human inducible 20S immunoproteasome incubated for 15 mins before fluorogenic substrate addition
[9] = Inhibition of chymotrypsin-like activity of human constitutive 20S proteasome incubated for 15 mins before fluorogenic substrate addition
[10] = Inhibition of trypsin-like activity of human constitutive 20S proteasome incubated for 15 mins before fluorogenic substrate addition
[11] = Inhibition of PA activity of human constitutive 20S proteasome incubated for 15 mins before fluorogenic substrate addition
HEK293 [12] = assay: Drug uptake in HEK293 cells at 5 uM incubated for 1 hr by flow cytometry; format: ADME, cell-based; conditions: human, hek293, 1 h
Proteasome [13] = assay: Reversible inhibition of PA activity of proteasome in HEK293 cells incubated for 1 hr by proteasome Glo cell-based chemiluminescent assay; conditions: Homo sapiens
HEK293 [14] = assay: Reversible inhibition of chymotrypsin-like activity of proteasome in HEK293 cells incubated for 1 hr by proteasome Glo cell-based chemiluminescent assay; conditions: Homo sapiens
Proteasome [15] = assay: Reversible inhibition of trypsin-like activity of proteasome in HEK293 cells incubated for 1 hr by proteasome Glo cell-based chemiluminescent assay; conditions: Homo sapiens

SMILES	pIC50 [1]	pIC50 (Proteasome [2])	Drug uptake [3]	pIC50 (Proteasome [4])	viability at 1 h, 5 µM [5] [%]	pIC50 (Proteasome [6])	pIC50 [7]	pIC50 [8]	pIC50 [9]	pIC50 [10]	pIC50 [11]	Drug uptake (HEK293 [12])	inhibition (Proteasome [13])	inhibition (HEK293 [14])	inhibition (Proteasome [15])
C[C@H](NC(=O)[C@H](Cc1ccc(OCc2ccccc2)cc1)NC(=O)CCCCCNC(=O)CCCCCNC(=O)CCCCCNC(=O)c1ccc(-c2c3ccc(=[N+](C)C)cc-3oc3cc(N(C)C)ccc23)c(C(=O)[O-])c1)C(=O)N[C@@H](C[C@]1(O)C(=O)Nc2ccccc21)C(=O)NCc1ccccc1	6.17	6.29	Active	6.22	100	6.90	5.76	6.13	6.31	5.89	5.86				
C[C@H](NC(=O)[C@H](Cc1ccc(OCc2ccccc2)cc1)NC(=O)c1ccc(-c2c3ccc(=O)cc-3oc3cc(O)ccc23)c(C(=O)O)c1)C(=O)N[C@@H](C[C@]1(O)C(=O)Nc2ccccc21)C(=O)NCc1ccccc1	5.83						5.61	5.15	5.59	5.71	5.02				
C[C@H](NC(=O)[C@H](Cc1ccc(OCc2ccccc2)cc1)NC(=O)c1ccc(-c2c3ccc(=[N+](C)C)cc-3oc3cc(N(C)C)ccc23)c(C(=O)[O-])c1)C(=O)N[C@@H](C[C@]1(O)C(=O)Nc2ccccc21)C(=O)NCc1ccccc1	6.38	5.61	Active	5.95	90.1	6.54	5.45	6.08	6.37	5.79	5.97	Active			
C[C@H](NC(=O)[C@H](Cc1ccc(OCc2ccccc2)cc1)NC(=O)CCCCCNC(=O)c1ccc(-c2c3ccc(=[N+](C)C)cc-3oc3cc(N(C)C)ccc23)c(C(=O)[O-])c1)C(=O)N[C@@H](C[C@]1(O)C(=O)Nc2ccccc21)C(=O)NCc1ccccc1	6.25	6.28	Active	6.40	78.2	7.19	5.76	6.19	6.32	5.91	6.00		Active	Active	Active
C[C@H](NC(=O)[C@H](Cc1ccc(OCc2ccccc2)cc1)NC(=O)OC(C)(C)C)C(=O)N[C@@H](C[C@]1(O)C(=O)Nc2ccccc21)C(=O)NCc1ccccc1	5.60						4.56	5.21	5.49	5.15	4.94				
COC(=O)CCCCCNC(=O)c1ccc(-c2c3ccc(=[N+](C)C)cc-3oc3cc(N(C)C)ccc23)c(C(=O)[O-])c1					67.6							Active			
